As usually defined, the melting point is the temperature, or range, at which the solid turns liquid. As to `CCN1C=C(C(=O)OC)C(=O)CC1c1ccc(OC)c(OC)c1` (stereo not drawn), the melting point lay in the range of 134 to 135 °C. For the compound `CCCS(=O)(=O)N[C@@H](CC(C)C)C(=O)N[C@@H](C(C)C)[C@@H](O)c1c(-c2ccccc2)c1=O`, the melting point was 195 to 196 °C. Then `O=C(O)COc1cccc2c1Cc1sc(S(=O)(=O)CC=Cc3ccccc3)nc1-2`, with 212 to 214 °C.

`CC(C)c1nc(CN)n(C)c1Sc1cccc([N+](=O)[O-])c1` came in with a melting point of 77 to 78 °C. `NC1C(=O)Nc2ccccc2SC1Cc1ccccc1` (stereo not drawn) had a melting point of 223 to 224 °C. As to `Cc1ccc(-c2csc(-c3ccc(C(=O)O)cc3)n2)cc1`, the melting point is 289 to 290 °C.

The compound `CNc1cc(O)c(OCCO)cc1[N+](=O)[O-]` yielded a melting point of 210 °C. Consider `CCCC(C)(COS(N)(=O)=O)COS(N)(=O)=O`, for which the melting point is 92 to 94 °C. Consider `CCCCCCCCCCCCCCCCCCN(CCCCCCCCCCCCCCCCCC)c1ccccc1`, for which the melting point was in the range of 110 to 111 °C. Then `CC(=O)O[C@H]1[C@H](NC(=N)Nc2ccccc2)c2cc(C#N)ccc2OC1(C)C` (relative stereo), with 239 to 240 °C; and `O=C(O)CCc1cc(Br)c2c(c1)CCO2`, with 117 to 118 °C; and `C=Cn1cc(C(=O)O)c(=O)c2ccc(Cl)cc21`, with 269 °C. Then `Clc1ccc(CO[C@H]2CO[C@@H](c3ccccc3)OC2)cc1Cl`, with 77 to 78 °C; and `O=C(Nc1ccc(OC(F)(F)F)cc1)N1CCOC(c2ccc(Br)s2)=N1`, with 139 to 140 °C; and `Cc1noc(NS(=O)(=O)c2ccccc2-c2ccc(CC(C)C)cc2CO)c1C`, with 60 to 67 °C. `CCn1nc2c(N)nc3cc(OC)ccc3c2c1CCc1ccccc1` came in with a melting point of 162 to 163 °C.

For the compound `CC1(C)c2ccccc2N2Cc3cc(N=Nc4ccc([N+](=O)[O-])cc4)ccc3OC21c1ccccc1` (stereo not drawn), the melting point stood at 200 °C. In turn, `CC1(c2cccnc2F)OC(=S)N(Nc2ccccc2)C1=O` (stereo not drawn) showed a melting point of 130 to 135 °C.

Regarding `O=c1cnn(CCCCCl)c(=O)[nH]1`, the melting point worked out at 93 °C. On to `Cc1cccc(Nc2cc(Nc3cccc(C)c3)ncn2)c1`, for which the melting point was in the range of 242 to 244 °C. Compound `CCOC(=O)c1cc2c(Cl)cccc2n1[C@H](C)CNC(=O)OC(C)(C)C` gave a melting point of 115 to 119 °C. As to `O=Cc1cc(O)c2c(c1)C(=O)c1cccc(O)c1C2=O`, the melting point fell in the range of 198 to 200 °C.

`CCCOc1cc(OCCC)c2c(=O)c(OCCC)c(-c3ccccc3)oc2c1` came in with a melting point of 90 to 93 °C. `O=C1Nc2ccccc2N(C(=O)CCN2CCCC2)c2ccc(Cl)cc21` had a melting point of 167 to 169 °C. For the compound `CC(=O)N(CCCc1ccccc1)[C@H]1CC[C@H](c2ccc(OCc3ccccc3)cc2)CC1`, the melting point lay within 80 to 81.5 °C. Compound `C#Cc1cc2c(Nc3ccc(OCc4cccc(F)c4)c(Cl)c3)ncnc2s1` displayed a melting point of 197 °C.

Regarding `Cc1ccc(/C=C/c2ccc3nc(C(=O)N[C@@H](Cc4ccc(OCc5ccccc5)cc4)C(=O)O)cn3c2)cc1`, the melting point was in the range of 266 to 267 °C. In turn, `N#CCNC(COCc1cc(C(F)(F)F)cc(C(F)(F)F)c1)C(c1ccccc1)c1ccccc1` (stereo not drawn) gave a melting point of 78 to 80 °C.

For the compound `CC(=O)Nc1ccccc1S(=O)(=O)NCCN1[C@H](C)Cc2ccsc2[C@@H]1C` (relative stereo), the melting point was in the range of 104 to 109 °C. As for `CCOC(=O)C1CCn2c(cc3ccccc32)C1O` (stereo not drawn), the figure is 116 to 120 °C.

With `NC(=O)N1C(=O)C(C(=O)c2ccco2)c2ncc(Cl)cc21` (stereo not drawn), the melting point was greater than 250 °C. Then `COC(=O)c1cc2c3ccccc3n(-c3ccccc3)c2s1`, with 147 to 149 °C; and `O=C(O)c1cccc(-c2ccc(Cl)c3cc(Cc4ccc(F)c(F)c4)sc23)c1`, with 214 to 215 °C; and `Nc1cc(C(=O)O)cc(OCc2ccccc2)c1C(=O)c1ccccc1`, with 216 to 218 °C. `Cc1noc(CCCCCCCOc2ccc(C3=NCCO3)cc2)c1CN1CCCC1` showed a melting point of 98 to 99 °C.

In the case of `Nc1onc(C(F)(F)F)c1-c1ccccc1`, the melting point lay in the range of 89 to 91 °C. `CCNc1nc(NCCN2CCCC2)nc(Nc2ccc(OC)cc2)n1`: the melting point lay within 29 to 31 °C.

Regarding `O=S(=O)(c1ccc(Nc2nccc(Nc3ccc(F)cc3)n2)cc1)N1CCC(C(O)c2ccncc2F)CC1` (stereo not drawn), the melting point worked out at 140 °C. `Cc1cc(C)c(N)cn1` showed a melting point of 62 to 64 °C. Then `CC(C)(C)[Si](C)(C)Oc1ccccc1-c1cc(-c2cccc([N+](=O)[O-])c2)c(C#N)c(NC(=O)c2cccs2)n1`, with 106 to 108 °C; and `Cc1ccc(C)c(OCCCC(C)(C)C(=O)Nc2c(F)cc(F)cc2F)c1`, with 82 to 83 °C. Then `CCCCCC(=O)O[C@H]1C[C@H](O)C=C2C=C[C@H](C)[C@H](CC[C@@H]3C[C@@H](O)CC(=O)O3)[C@H]21`, with 138 to 139 °C; and `CC(=O)c1ccc2nc(NC(=O)c3ccc(C(C)(C)C)cc3)cn2n1`, with 237 to 238 °C. As for `COc1c(C)cc(C)cc1/C=C/C(=O)O`, the figure is 178 to 180 °C; as for `O=C(Nc1ccccc1S(=O)(=O)NCC1CCCCC1)N[C@@H](Cc1ccc(NC(=O)c2c(Cl)cccc2Cl)cc1)C(=O)O`, 185 °C.

In the case of `O=C(c1ccc2c(c1)OCC(CN1CCOCC1)N2)N1CCOCC1` (stereo not drawn), the melting point lay in the range of 125 to 126 °C. `CCCCCCCCCCCCCCn1nnc(NC(=O)Nc2c(C(C)C)cccc2C(C)C)n1` returned a melting point of 112 to 114 °C. As for `CCc1cccc(NC(=O)C=C(C)C)c1`, the melting point turned out to be 90 °C.

For `CS(=O)(=O)c1ccc(-c2oncc2CCCO)cc1`, the melting point was 125 to 126 °C. Regarding `COc1cc2c(cc1OC)CC(NC(=O)C1CCCN1)CC2` (stereo not drawn), the melting point fell in the range of 108 to 109 °C. Then `COc1ccccc1CNc1ccc2cc(Nc3cccc(C)n3)ccc2n1`, with 134 °C; and `CS(=O)c1ccc(S(=O)(=O)N2CCCC2=O)cc1` (stereo not drawn), with 127 to 129 °C. As for `CN(c1cccc2cc(-c3nc(CCC(N)=O)cs3)[nH]c12)S(=O)(=O)c1cccs1`, the figure is 200 to 201 °C.

`CN1CC(CCCl)Oc2ncccc2C1=S` (stereo not drawn) registered a melting point of 134 to 136 °C. In the case of `COCCOC(=O)Cc1cc(Oc2ccc(C(F)(F)F)cc2Cl)ccc1[N+](=O)[O-]`, the melting point was 71.9 to 72.5 °C.

In the case of `C=CCCC(O)=C(C#N)C(=O)Nc1ccc(Cl)c(C)c1`, the melting point came out at 134 °C. With `COc1ccc(F)cc1C(C)(C)CC(O)(Cn1ccc(=O)c2ccccc21)C(F)(F)F` (stereo not drawn), the melting point fell in the range of 170 to 172 °C. As for `C=CC(=O)c1ccc(O)cc1`, the figure is 99 to 103 °C; as for `CCCCCC(=O)NCCc1ccc(S(=O)(=O)NC(=O)c2ccc(C(=O)NCC(=O)OC)nc2)cc1`, 128 to 130 °C; as for `CC(Oc1ccc(OC(F)(F)F)cc1)c1ccnc2ncnn12` (stereo not drawn), 91 to 93 °C. Regarding `O=C(c1ccc(-c2ncn[nH]2)cc1)N1Cc2cccn2Cc2ccccc21`, the melting point fell in the range of 225 to 227 °C. As for `O=c1ccc(-c2c(-c3ccccc3)nn3ccccc23)nn1CC1CCCCN1` (stereo not drawn), the figure is 141 to 142 °C; as for `COc1cccc(CC(=O)O)c1OCCCc1ccc(OC(C)C)cc1Oc1ncc(C(F)(F)F)cc1Cl`, 100 to 101 °C. Then `N#Cc1c(-c2ccc(Cl)c(Cl)c2)[nH]c(C(F)(F)F)c1Cl`, with 239 to 241 °C. Then `CC(=O)c1cc(S(=O)(=O)c2ccccc2)ccc1OCc1ccccc1`, with 80.5 to 82.4 °C; and `C/C(=C\C=C(c1ccccc1)c1ccccc1)C(=O)O`, with 184 to 186 °C; and `Cn1cc(CS(C)(=O)=O)c(=O)c2cc(F)ccc21`, with 200 to 205 °C. `NNc1nncc(-c2ccccc2F)n1` had a melting point of 171 to 174 °C. Then `COc1cc2c3c4c(c(-c5ccccc5Cl)cc3n(C)c2cc1OCc1ccccc1)C(=O)NC4=O`, with 282 to 285 °C; and `CS(=O)c1nnc(-c2ccc3ncn(-c4ccc(OC(F)F)cc4)c3c2)o1` (stereo not drawn), with 135 to 136 °C. Then `CC1=NN=C(c2ccc(NC(=O)CN(C)C)cc2)c2cc3c(cc2C1)OCO3`, with 211 to 213 °C; and `CN1CCC(C2=C(C#N)C(c3ccccc3Cl)c3c[nH]nc3N2)CC1` (stereo not drawn), with greater than 270 °C. Compound `N#Cc1cnn2c(C(F)(F)F)cc(-c3ccccc3Cl)nc12` came in with a melting point of 169 °C.

For `N#CC(Cl)=C(Cl)S(=O)(=O)c1cc(Cl)ccc1Cl`, the melting point amounted to 84 °C. As for `Fc1ccc(-c2ncn(C3CCN4CCCC4C3)c2-c2ccncc2)cc1` (stereo not drawn), the figure is 187 to 189 °C; as for `FC(F)(F)c1cc(Cc2ccc(Cl)c(C(F)(F)F)c2)ccc1Cl`, 98 to 101 °C.

Turning to `C[Si](C)(C)CCCOc1ccc(O)c(C(=O)O)c1`, the melting point is 115 to 116 °C. As for `CC(C(N)=O)n1c(-c2ccc(Cl)cc2)nc2cccnc21` (stereo not drawn), the figure is 202 to 204 °C; as for `COc1ccc([C@@H]2C=C[C@H](C(=O)O)n3c(=O)n(CCCl)c(=O)n32)cc1` (relative stereo), 158 to 161 °C. Then `COC(=O)C1CCCN(C(=O)OC(C)(C)C)C1` (stereo not drawn), with 47.5 to 48.5 °C. Turning to `N#CCCc1cc(C(=O)O)cc(S(N)(=O)=O)c1Oc1ccccc1`, the melting point was 259 to 262 °C.

The compound `O=C(O)CC/C=C\CC[C@@H]1[C@@H](OCc2ccc(-c3ccccc3)cc2)CO[C@@H]1c1cccnc1` had a melting point of 94 to 96 °C. Then `COc1ccc(C(=O)Nc2ccc(CCc3ccc(O)c(O)c3)cc2)c(O)c1`, with 179 to 180 °C; and `OC(c1ccccc1)(c1ccccc1)c1ccncc1`, with 238 to 240 °C; and `Cc1ccc(C)c(OCc2ccccc2CC#N)c1`, with 51.5 to 53 °C. Then `N=C(NCCN1CCC(Nc2nc3ccccc3n2Cc2ccc(F)cc2)CC1)N[N+](=O)[O-]`, with 147 °C; and `Cc1ncn(-c2cc(F)ccc2CNC(=O)c2nc3n(c(=O)c2OCc2ccccc2)CCN3c2ccccc2)n1`, with 147 to 148 °C. `COC(=O)c1ccccc1Nc1cccc(N2N=CN(C)N2)c1` yielded a melting point of 106 to 108 °C.

The record behind these values is a melting point compilation (Tetko et al.; mined from patent text by program, amines drawn as free bases though some values may be those of a salt).
